Experiment: xn = mol fraction of the nth substance listed
Conditions: 101 kPa, Liquid; for speed of sound: Sing-around technique in a fixed-path interferometer

CCOC(C)(C)C [2-ethoxy-2-methylpropane] + Cc1ccccc1C
Conditions | mass density [kg/m3] | speed of sound [m/s]
288.15 K, x1 = 0.055 | 875.654 | 1371.2
288.15 K, x1 = 0.098 | 870.017 | 1357.8
288.15 K, x1 = 0.201 | 855.684 | 1324.8
288.15 K, x1 = 0.307 | 840.866 | 1290.1
288.15 K, x1 = 0.4 | 827.772 | 1261.6
288.15 K, x1 = 0.502 | 813.516 | 1228.9
288.15 K, x1 = 0.601 | 800.311 | 1199
288.15 K, x1 = 0.661 | 791.943 | 1180.1
288.15 K, x1 = 0.803 | 772.557 | 1137.4
288.15 K, x1 = 0.895 | 759.896 | 1110.2
288.15 K, x1 = 0.947 | 752.872 | 1095
288.15 K, x1 = 1 | 744.955 | 1076.4
290.65 K, x1 = 0.055 | 873.542 | 1360.8
290.65 K, x1 = 0.098 | 867.884 | 1347.3
290.65 K, x1 = 0.201 | 853.503 | 1314.3
290.65 K, x1 = 0.307 | 838.637 | 1279.4
290.65 K, x1 = 0.4 | 825.503 | 1251
290.65 K, x1 = 0.502 | 811.198 | 1218.2
290.65 K, x1 = 0.601 | 797.952 | 1188.2
290.65 K, x1 = 0.661 | 789.556 | 1169.2
290.65 K, x1 = 0.803 | 770.105 | 1126.4
290.65 K, x1 = 0.895 | 757.404 | 1099.4
290.65 K, x1 = 0.947 | 750.354 | 1084.5
290.65 K, x1 = 1 | 742.482 | 1065.1
293.15 K, x1 = 0.055 | 871.419 | 1350.4
293.15 K, x1 = 0.098 | 865.74 | 1336.8
293.15 K, x1 = 0.201 | 851.313 | 1303.8
293.15 K, x1 = 0.307 | 836.397 | 1268.7
293.15 K, x1 = 0.4 | 823.223 | 1240.4
293.15 K, x1 = 0.502 | 808.871 | 1207.4
293.15 K, x1 = 0.601 | 795.578 | 1177.3
293.15 K, x1 = 0.661 | 787.156 | 1158.3
293.15 K, x1 = 0.803 | 767.641 | 1115.4
293.15 K, x1 = 0.895 | 754.895 | 1088.5
293.15 K, x1 = 0.947 | 747.821 | 1073.5
293.15 K, x1 = 1 | 739.947 | 1053.7
295.65 K, x1 = 0.055 | 869.295 | 1339.8
295.65 K, x1 = 0.098 | 863.594 | 1326.3
295.65 K, x1 = 0.201 | 849.119 | 1293.2
295.65 K, x1 = 0.307 | 834.156 | 1257.9
295.65 K, x1 = 0.4 | 820.937 | 1229.6
295.65 K, x1 = 0.502 | 806.537 | 1196.5
295.65 K, x1 = 0.601 | 793.199 | 1166.3
295.65 K, x1 = 0.661 | 784.75 | 1147.3
295.65 K, x1 = 0.803 | 765.167 | 1104.3
295.65 K, x1 = 0.895 | 752.377 | 1077.3
295.65 K, x1 = 0.947 | 745.278 | 1062.5
295.65 K, x1 = 1 | 737.374 | 1042.2
298.15 K, x1 = 0.055 | 867.167 | 1329.3
298.15 K, x1 = 0.098 | 861.446 | 1315.8
298.15 K, x1 = 0.201 | 846.922 | 1282.7
298.15 K, x1 = 0.307 | 831.91 | 1247.3
298.15 K, x1 = 0.4 | 818.651 | 1218.9
298.15 K, x1 = 0.502 | 804.2 | 1185.7
298.15 K, x1 = 0.601 | 790.817 | 1155.5
298.15 K, x1 = 0.661 | 782.341 | 1136.4
298.15 K, x1 = 0.803 | 762.689 | 1093.3
298.15 K, x1 = 0.895 | 749.853 | 1066.3
298.15 K, x1 = 0.947 | 742.726 | 1051.4
298.15 K, x1 = 1 | 734.806 | 1031
300.65 K, x1 = 0.055 | 865.039 | 1318.9
300.65 K, x1 = 0.098 | 859.296 | 1305.5
300.65 K, x1 = 0.201 | 844.725 | 1272.3
300.65 K, x1 = 0.307 | 829.661 | 1236.7
300.65 K, x1 = 0.4 | 816.36 | 1208.3
300.65 K, x1 = 0.502 | 801.859 | 1175
300.65 K, x1 = 0.601 | 788.431 | 1144.7
300.65 K, x1 = 0.661 | 779.923 | 1125.5
300.65 K, x1 = 0.803 | 760.203 | 1082.3
300.65 K, x1 = 0.895 | 747.321 | 1055.2
300.65 K, x1 = 0.947 | 740.169 | 1040.3
300.65 K, x1 = 1 | 732.225 | 1019.8
303.15 K, x1 = 0.055 | 862.904 | 1308.4
303.15 K, x1 = 0.098 | 857.143 | 1295.2
303.15 K, x1 = 0.201 | 842.523 | 1262
303.15 K, x1 = 0.307 | 827.409 | 1226.2
303.15 K, x1 = 0.4 | 814.064 | 1197.8
303.15 K, x1 = 0.502 | 799.512 | 1164.3
303.15 K, x1 = 0.601 | 786.037 | 1133.9
303.15 K, x1 = 0.661 | 777.502 | 1114.7
303.15 K, x1 = 0.803 | 757.711 | 1071.3
303.15 K, x1 = 0.895 | 744.78 | 1044.2
303.15 K, x1 = 0.947 | 737.602 | 1029.1
303.15 K, x1 = 1 | 729.647 | 1008.6
305.65 K, x1 = 0.055 | – | 1298
305.65 K, x1 = 0.098 | – | 1285
305.65 K, x1 = 0.201 | – | 1251.6
305.65 K, x1 = 0.307 | – | 1215.8
305.65 K, x1 = 0.4 | – | 1187.3
305.65 K, x1 = 0.502 | – | 1153.6
305.65 K, x1 = 0.601 | – | 1123.1
305.65 K, x1 = 0.661 | – | 1103.9
305.65 K, x1 = 0.803 | – | 1060.3
305.65 K, x1 = 0.895 | – | 1033.2
305.65 K, x1 = 0.947 | – | 1018
305.65 K, x1 = 1 | – | 997.52

— the NIST ThermoML archive (doi:10.1016/j.fluid.2008.03.004)
